According to patent publication US5556996A, “Oxiranyls disubstituted with a phenyl group and a substituted chromanyl or tetrahydroquinolinyl group having retinoid like activity” (Allergan, priority 1994, dated 1996):

Test system: ornithine decarboxylase (ODC)
Assay: Inhibition of TPA induction of ornithine decarboxylase (ODC assay)
Format: biochemical
Settings: TPA-induced ODC activity
From the text: The retinoic acid-like activity of these compounds is confirmed through the classic measure of retinoic acid activity involving the effects of retinoic acid on ornithine decarboxylase. The original work on the correlation between retinoic acid and decrease in cell proliferation was done by Verma & Boutwell, Cancer Research, 1977, 37,2196-2201. That reference discloses that ornithine decarboxylase (ODC) activity increased precedent to polyamine biosynthesis. It has been established elsewhere that increases in polyamine synthesis can be correlated or associated with cellular proliferation. Thus, if ODC activity could be inhibited, cell hyperproliferation could be modulated. Although all cases for ODC activity increases are unknown, it is known that 12-0-tetradecanoylphorbol-13-acetate (TPA) induces ODC activity. Retinoic acid inhibits this induction of ODC activity by TPA. […] Activity of exemplary compounds of the present invention in the above-described ODC assay is disclosed in Table 1 which provides IC80 data for the exemplary compounds. ("IC80 " is that concentration of the test compound which causes 80% inhibition in the ODC assay).

Row | Compound | IC80 conc (concentration of the test compound which causes 80% inhibition in the ODC assay) [nmols]
1 | CCOC(=O)c1ccc([C@@H]2O[C@@]2(C)c2ccc3c(c2)C(C)(C)CC(C)(C)O3)cc1 (relative stereo) [Compound 1, Ethyl(±)-(E)-4-[2-methyl-2-(2,2,4,4-tetramethylchroman-6-yl)oxiran-1-yl]benzoate] | > 300
2 | CC1(C)CC(C)(C)c2cc([C@]3(C)O[C@H]3c3ccc(C(=O)O)cc3)ccc2O1 (relative stereo) [Compound 2, (±)-(E)T4-[2-methyl-2-(2,2,4,4-tetramethylchroman-6-yl)oxiran-1-yl]benzoic acid] | 73
